From publication PMC5516028, “Molecular tools for GABAA receptors: High affinity ligands for β1-containing subtypes” (Scientific Reports, 2017)
Where “and” joins values, the source holds several entries; their conditions need not be identical. Equal entries are not always repeated. Where two headings read alike, the source gives them in different places.

Columns and labels:
Format in all cases: cell-based
[1] = molecular target: T1, α1β1 GABAA receptors (Rattus norvegicus, UniProt P15431+P62813); experiment: Two electrode voltage clamp in Xenopus laevis oocytes, α1β1; settings: α1β1
T1 construct: expressed in transfected cells; host or cells: Xenopus laevis oocytes, mRNA injected
T1 sequence (P62813 28-455): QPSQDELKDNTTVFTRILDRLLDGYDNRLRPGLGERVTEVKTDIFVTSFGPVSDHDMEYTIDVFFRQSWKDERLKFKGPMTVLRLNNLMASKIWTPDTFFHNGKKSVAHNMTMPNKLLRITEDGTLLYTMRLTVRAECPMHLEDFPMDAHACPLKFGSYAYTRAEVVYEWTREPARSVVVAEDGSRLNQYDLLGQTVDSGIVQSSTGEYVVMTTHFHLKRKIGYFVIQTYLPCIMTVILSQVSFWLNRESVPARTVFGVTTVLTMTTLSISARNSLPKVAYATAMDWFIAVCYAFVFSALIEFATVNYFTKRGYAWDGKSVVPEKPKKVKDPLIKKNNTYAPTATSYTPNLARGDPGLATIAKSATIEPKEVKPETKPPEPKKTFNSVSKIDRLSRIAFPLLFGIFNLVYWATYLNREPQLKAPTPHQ
T1 sequence (P15431 26-474): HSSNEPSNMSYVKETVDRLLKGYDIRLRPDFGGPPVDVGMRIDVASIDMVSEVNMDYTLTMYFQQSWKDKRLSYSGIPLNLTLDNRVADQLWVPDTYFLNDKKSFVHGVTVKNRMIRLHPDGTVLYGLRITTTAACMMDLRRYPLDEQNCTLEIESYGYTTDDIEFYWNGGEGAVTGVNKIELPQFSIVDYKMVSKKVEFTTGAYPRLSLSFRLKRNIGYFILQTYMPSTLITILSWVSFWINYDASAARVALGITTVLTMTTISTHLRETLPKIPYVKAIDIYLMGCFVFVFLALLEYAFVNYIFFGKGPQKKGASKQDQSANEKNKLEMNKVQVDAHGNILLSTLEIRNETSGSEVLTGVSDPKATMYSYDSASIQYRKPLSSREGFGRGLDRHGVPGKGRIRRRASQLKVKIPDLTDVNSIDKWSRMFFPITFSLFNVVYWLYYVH
Method in brief: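 Defolliculated stage 5–6 oocytes received 4.5 ng of total rat subunit mRNA. The α:β ratio was 1:1 and the α:β:γ2 ratio was 1:1:5. Cells were held at 18 °C before recording, 2–3 days for binary and 3–4 days for ternary receptors.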

[2] = molecular target: T2, α5β3γ2 GABAA receptors (Rattus norvegicus, UniProt P19969+P63079); experiment: Two electrode voltage clamp in Xenopus laevis oocytes, α5β3γ2
T2 construct: expressed in transfected cells; host or cells: Xenopus laevis oocytes, mRNA injected
T2 sequence (P19969 32-464 limits assumed): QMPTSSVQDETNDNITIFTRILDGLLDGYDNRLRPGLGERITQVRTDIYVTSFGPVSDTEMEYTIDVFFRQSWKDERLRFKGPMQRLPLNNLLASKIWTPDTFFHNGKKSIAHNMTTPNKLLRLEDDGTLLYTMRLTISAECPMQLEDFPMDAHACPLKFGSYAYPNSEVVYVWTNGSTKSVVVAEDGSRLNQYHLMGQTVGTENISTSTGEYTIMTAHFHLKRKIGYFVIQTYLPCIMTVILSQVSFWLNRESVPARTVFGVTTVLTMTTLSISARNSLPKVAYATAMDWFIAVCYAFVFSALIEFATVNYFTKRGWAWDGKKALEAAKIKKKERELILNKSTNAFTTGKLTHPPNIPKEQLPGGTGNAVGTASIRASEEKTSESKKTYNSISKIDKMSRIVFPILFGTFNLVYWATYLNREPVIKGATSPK
T2 sequence (P63079 26-473): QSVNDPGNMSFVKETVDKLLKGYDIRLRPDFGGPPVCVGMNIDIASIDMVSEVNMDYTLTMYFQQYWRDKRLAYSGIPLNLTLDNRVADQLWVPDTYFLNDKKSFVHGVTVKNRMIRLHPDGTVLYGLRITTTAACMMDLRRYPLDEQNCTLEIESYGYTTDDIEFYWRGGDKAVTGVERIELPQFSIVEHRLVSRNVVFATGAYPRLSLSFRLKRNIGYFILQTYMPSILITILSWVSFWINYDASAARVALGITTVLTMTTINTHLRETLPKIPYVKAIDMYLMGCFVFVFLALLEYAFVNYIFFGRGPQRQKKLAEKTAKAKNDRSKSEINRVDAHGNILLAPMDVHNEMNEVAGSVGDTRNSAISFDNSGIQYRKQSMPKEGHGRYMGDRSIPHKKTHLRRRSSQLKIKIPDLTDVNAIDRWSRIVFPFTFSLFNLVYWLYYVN
T2 sequence (P18508 39-466 partner): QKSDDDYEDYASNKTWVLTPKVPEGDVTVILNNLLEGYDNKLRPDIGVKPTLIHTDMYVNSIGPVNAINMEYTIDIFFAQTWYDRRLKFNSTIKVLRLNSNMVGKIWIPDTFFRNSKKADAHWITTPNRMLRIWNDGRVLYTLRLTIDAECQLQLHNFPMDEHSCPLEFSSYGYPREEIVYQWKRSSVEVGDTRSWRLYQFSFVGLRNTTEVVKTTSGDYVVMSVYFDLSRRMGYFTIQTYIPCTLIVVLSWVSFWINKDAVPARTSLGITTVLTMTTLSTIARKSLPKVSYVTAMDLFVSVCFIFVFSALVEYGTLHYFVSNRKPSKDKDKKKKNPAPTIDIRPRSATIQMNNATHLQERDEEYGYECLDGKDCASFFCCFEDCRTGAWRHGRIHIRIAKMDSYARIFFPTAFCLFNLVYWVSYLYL
Description: (§1) cDNA’s of rat GABAA receptor subunits α1, α4, β1, β2, β3 and γ2S were cloned as described. cDNAs of the rat subunits α2, α3 and α5 were gifts from P. Malherbe, that of α6 and γ1 were gifts of P. Seeburg and that of δ was a gift of C. Czajkowski. The mutants were constructed using the Q5 Site-Directed Mutagenesis Kit (New England Biolabs) following manufacturer’s instruction. We used the wild-type rat β3-pCI vector as template and the primers […] and […] resulting in a substitution of amino acid N41 (AAC) to R (AGG). We used the wild-type rat β1-pCI vector as template and the primers […] and […] resulting in a substitution of amino acid R41 (CGG) to N (AAC). The mutated subunits were confirmed by sequencing.
(§2) In vitro transcription of mRNA was based on the cDNA expression vectors encoding for rat GABAA receptor subunits α1–6, β1-3, γ1,2, δ and the two β mutants (β1R41N and β3N41R)[40]. After linearizing the cDNA vectors with appropriate restriction endonucleases, the cDNA was purified and concentrated with the DNA Clean and Contentrator ^TM Kit (Zymoresearch, Catalog No. D4005). Capped transcripts of the purified cDNA were produced using the mMESSAGE mMACHINE® T7 transcription kit (Ambion, TX, USA) and polyadenylated using the Ambion PolyA tailing kit (Ambion). After transcription and polyadenylation the RNA was purified with the MEGAclear ^TM Kit (Ambion, Catalog No. AM1908). The final RNA concentration was measured on NanoDrop® ND-1000 and finally diluted and stored in diethylpyrocarbonate-treated water at −80 °C. For the microinjection, the RNA of αβ receptor combinations was mixed at 1:1 ratio (which leads to αβ receptors that consist of predominantly 3 beta and 2 alpha subunits[27]), for αkβlγm (k = 1–3, l = 1, 3, m = 1, 2) receptors at 1:1:5 ratio, for αkβ3γ2 (k = 4–6) and αkβlδ (k = 1, 4 and 6, l = 1, 3) receptor combinations at 3:1:5 ratio.
(§3) Mature female Xenopus laevis (Nasco, WI) were anesthetized in a bath of ice-cold 0.17% Tricain (Ethyl-m-aminobenzoate, Sigma, MO) before decapitation in full accordance with all rules of the Austrian animal protection law (see http://www.ris.bka.gv.at/Dokumente/BgblAuth/BGBLA_2012_I_114/BGBLA_2012_I_114.pdf) and the Austrian animal experiment by-laws (see https://www.ris.bka.gv.at/Dokumente/BgblAuth/BGBLA_2012_II_522/BGBLA_2012_II_522.pdf) which implement the European Directive 2010/63/EU (see http://eur-lex.europa.eu/LexUriServ/LexUriServ.do?uri=OJ:L:2010:276:0033:0079:en:PDF) into the Austrian law (all information accessed on July 27, 2016). The frog’s ovaries were transferred to ND96 medium (96 mM NaCl, 2 mM KCl, 1 mM MgCl2, 5 mM HEPES; pH 7.5). Stage 5–6 oocytes with the follicle cell layer around them were roughly dissected with forceps into packages of 10–15 cells and washed in Ca^2+-free ND96 medium. Cells were then digested with collagenase (type IA, Sigma, NO, 1 mg/mL ND96) at 18 °C shaking at 30 rpm for 30–60 minutes and gently defolliculated with the aid of a glass pipette with appropriate tip diameter and a platinum loop. Defolliculated cells were stored at 18 °C for at least 6 hours in ND96 solution containing penicillin G (10000 IU/100 mL) and streptomycin (10 mg/100 mL) in order to preselect and exclude damaged cells from further treatment. Healthy defolliculated oocytes were injected with an aqueous solution of mRNA. A total of 4.5 ng of mRNA per oocyte was injected with a Nanoject II (Drummond). After injection of mRNA, oocytes were incubated at 18 °C (ND96 + antibiotic) for 2–3 days for αβ receptors and for 3–4 days for αβγ or αβδ receptors before recording. When cells were measured at later time points, oocytes were stored at +4 °C instead of 18 °C.
(§4) For electrophysiological recordings, oocytes were placed on a nylon-grid in a bath of Ca^2+-containing NDE solution medium [96 mM NaCl, 5 mM HEPES-NaOH (pH 7.5), 2 mM KCl, 1 mM MgCl2, 1.8 mM CaCl2].

[3] = molecular target: T3, α1β3N41R GABAA receptors (Rattus norvegicus, UniProt P62813+P63079, N66R); experiment: Two electrode voltage clamp in Xenopus laevis oocytes, mutant α1β3N41R; settings: co-applied with GABA EC3-5, read-out: EC50 values for the mutated receptors
T3 construct: expressed in transfected cells; host or cells: Xenopus laevis oocytes, mRNA injected
T3 sequence (P62813 28-455): as the sequence (P62813 28-455) above
T3 sequence (P63079 26-473 N66R): as the sequence (P63079 26-473) above, with N41R counted along it
Description: as §1, §2, §3, §4

[4] = molecular target: T4, α1β3 GABAA receptors (Rattus norvegicus, UniProt P62813+P63079); experiment: Two electrode voltage clamp in Xenopus laevis oocytes, α1β3
T4 construct: expressed in transfected cells; host or cells: Xenopus laevis oocytes, mRNA injected
T4 sequence (P62813 28-455): as the sequence (P62813 28-455) above
T4 sequence (P63079 26-473): as the sequence (P63079 26-473) above
Description: as §1, §2, §3, §4

[5] = molecular target: T5, α3β3 GABAA receptors (Rattus norvegicus, UniProt P20236+P63079); experiment: Two electrode voltage clamp in Xenopus laevis oocytes, α3β3
T5 construct: expressed in transfected cells; host or cells: Xenopus laevis oocytes, mRNA injected
T5 sequence (P20236 29-493): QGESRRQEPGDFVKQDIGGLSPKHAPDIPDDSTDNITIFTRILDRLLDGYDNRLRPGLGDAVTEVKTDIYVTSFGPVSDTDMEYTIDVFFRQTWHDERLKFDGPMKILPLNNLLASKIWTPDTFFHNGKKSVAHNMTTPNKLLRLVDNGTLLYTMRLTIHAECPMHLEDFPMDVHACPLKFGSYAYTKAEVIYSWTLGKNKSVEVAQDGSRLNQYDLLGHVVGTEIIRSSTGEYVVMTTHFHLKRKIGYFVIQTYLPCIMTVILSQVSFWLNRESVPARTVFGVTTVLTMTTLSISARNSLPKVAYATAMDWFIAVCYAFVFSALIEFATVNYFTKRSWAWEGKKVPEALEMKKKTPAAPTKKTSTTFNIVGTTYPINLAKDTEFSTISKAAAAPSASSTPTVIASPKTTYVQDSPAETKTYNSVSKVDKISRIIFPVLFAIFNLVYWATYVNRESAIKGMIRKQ
T5 sequence (P63079 26-473): as the sequence (P63079 26-473) above
Description: as §1, §2, §3, §4

[6] = molecular target: T6, α1β1R41N GABAA receptors (Rattus norvegicus, UniProt P15431+P62813, R66N); experiment: Two electrode voltage clamp in Xenopus laevis oocytes, mutant α1β1R41N; settings: read-out: % of control current at EC3-5
T6 construct: expressed in transfected cells; host or cells: Xenopus laevis oocytes, mRNA injected
T6 sequence (P62813 28-455): as the sequence (P62813 28-455) above
T6 sequence (P15431 26-474 R66N): as the sequence (P15431 26-474) above, with R41N counted along it
Description: as §1, §2, §3, §4

[7] = molecular target: T7, α1β2 GABAA receptors (Rattus norvegicus, UniProt P62813+P63138); experiment: Two electrode voltage clamp in Xenopus laevis oocytes, α1β2
T7 construct: expressed in transfected cells; host or cells: Xenopus laevis oocytes, mRNA injected
T7 sequence (P62813 28-455): as the sequence (P62813 28-455) above
T7 sequence (P63138 25-474 limits assumed): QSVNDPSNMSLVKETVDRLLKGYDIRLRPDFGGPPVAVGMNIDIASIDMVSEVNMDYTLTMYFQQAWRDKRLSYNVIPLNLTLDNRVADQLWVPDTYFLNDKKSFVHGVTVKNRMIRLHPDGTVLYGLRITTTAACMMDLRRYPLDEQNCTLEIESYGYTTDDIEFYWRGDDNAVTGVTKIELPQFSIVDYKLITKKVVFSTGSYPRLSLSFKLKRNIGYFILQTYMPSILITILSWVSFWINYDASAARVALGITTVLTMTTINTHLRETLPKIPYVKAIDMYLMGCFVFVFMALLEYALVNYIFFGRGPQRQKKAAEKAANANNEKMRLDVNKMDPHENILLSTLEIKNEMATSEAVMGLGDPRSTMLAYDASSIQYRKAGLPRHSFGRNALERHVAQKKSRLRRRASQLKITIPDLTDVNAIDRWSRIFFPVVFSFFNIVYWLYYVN
Description: as §1, §2, §3, §4

## Cc1ccc(-n2nc3c4cc(Cl)ccc4[nH]cc-3c2=O)cc1 [Compound 2, 8-Chloro-2-(4-methylphenyl)-2H-pyrazolo[4,3-c]quinolin-3(5H)-one]
[1]; read-out: efficacy, % of control current (GABA EC3-5 = 100%), 300 nM
  activity at 0.3 µM: 194 ± 23.3%
[1]
  Hill slope (nH): 1.0±0.4
[1]; co-applied with GABA EC3-5, read-out: EC50
  EC50: 0.77 µM
[1]; log of EC50, sign as printed, read-out: LogEC50 (converted)
  EC50: 0.759 µM
[2]
  EC50: 6.4 µM
[2]; read-out: efficacy, % of control current (GABA EC3-5 = 100%), α5β3γ2, 1 nM
  activity at 0.001 µM: 93.3 ± 5.7%
[2]; read-out: efficacy, % of control current (GABA EC3-5 = 100%), α5β3γ2, 10 nM
  activity at 0.01 µM: 95.1 ± 6.9%
[2]; read-out: efficacy, % of control current (GABA EC3-5 = 100%), α5β3γ2, 100 nM
  activity at 0.1 µM: 97.7 ± 11.5%
[2]; read-out: efficacy, % of control current (GABA EC3-5 = 100%), α5β3γ2, 300 nM
  activity at 0.3 µM: 103 ± 14.9%
[2]; read-out: efficacy, % of control current (GABA EC3-5 = 100%), α5β3γ2, 1 µM
  activity at 1 µM: 123 ± 16.5%
[2]; read-out: efficacy, % of control current (GABA EC3-5 = 100%), α5β3γ2, 10 µM
  activity at 10 µM: 220 ± 31.1%
[2]; read-out: efficacy, % of control current (GABA EC3-5 = 100%), α5β3γ2, 30 µM
  activity at 30 µM: 266 ± 41%
[2]; α5-containing subtype (α5β3γ2), read-out: maximum efficacy
  Emax: ~200%
[3]
  EC50: 3.44 µM
[4]; read-out: efficacy, % of control current (GABA EC3-5 = 100%), α1β3, 1 nM
  activity at 0.001 µM: 100.1 ± 0.1%
[4]; read-out: efficacy, % of control current (GABA EC3-5 = 100%), α1β3, 3 nM
  activity at 0.003 µM: 100.1 ± 0.1%
[4]; read-out: efficacy, % of control current (GABA EC3-5 = 100%), α1β3, 10 nM
  activity at 0.01 µM: 100.7 ± 0.5%
[4]; read-out: efficacy, % of control current (GABA EC3-5 = 100%), α1β3, 100 nM
  activity at 0.1 µM: 109 ± 2.2%
[4]; read-out: efficacy, % of control current (GABA EC3-5 = 100%), α1β3, 300 nM
  activity at 0.3 µM: 122 ± 5.4%
[4]; read-out: efficacy, % of control current (GABA EC3-5 = 100%), α1β3, 1 µM
  activity at 1 µM: 151 ± 11.5%
[4]; read-out: efficacy, % of control current (GABA EC3-5 = 100%), α1β3, 3 µM
  activity at 3 µM: 276 ± 41.7%
[4]; read-out: efficacy, % of control current (GABA EC3-5 = 100%), α1β3, 10 µM
  activity at 10 µM: 372 ± 40.1%
[4]; α1β3
  Hill slope (nH): 1.9±0.6
[4]; α1β3, co-applied with GABA EC3-5, read-out: EC50
  EC50: 2.39 µM
[4]; α1β3, log of EC50, sign as printed, read-out: LogEC50 (converted)
  EC50: 2.4 µM and 2.51 µM
[5]
  EC50: 2.1 µM
[5]; read-out: efficacy, % of control current (GABA EC3-5 = 100%), α3β3, 1 nM
  activity at 0.001 µM: 101.2 ± 0.8%
[5]; read-out: efficacy, % of control current (GABA EC3-5 = 100%), α3β3, 10 nM
  activity at 0.01 µM: 102 ± 1.2%
[5]; read-out: efficacy, % of control current (GABA EC3-5 = 100%), α3β3, 100 nM
  activity at 0.1 µM: 106 ± 1.3%
[5]; read-out: efficacy, % of control current (GABA EC3-5 = 100%), α3β3, 3 µM
  activity at 3 µM: 226 ± 10.7%
[5]; read-out: efficacy, % of control current (GABA EC3-5 = 100%), α3β3, 10 µM
  activity at 10 µM: 285 ± 7%
[5]; read-out: efficacy, % of control current (GABA EC3-5 = 100%), α3β3, 30 µM
  activity at 30 µM: 288 ± 8.7%
[6]; 100nM
  current as % of control at 0.1 µM: 70 ± 5%
[6]; 300nM
  current as % of control at 0.3 µM: 62 ± 8%
[6]; 1μM
  current as % of control at 1 µM: 62 ± 8%
[6]; 3µM
  current as % of control at 3 µM: 60 ± 9%
[6]; 10μM
  current as % of control at 10 µM: 60 ± 10%
[6]; 30μM
  current as % of control at 30 µM: 60 ± 8%
[7]
  EC50: 4.31 µM
[7]; read-out: efficacy, % of control current (GABA EC3-5 = 100%), α1β2, 100 nM
  activity at 0.1 µM: 105 ± 1.4%
[7]; read-out: efficacy, % of control current (GABA EC3-5 = 100%), α1β2, 1 µM
  activity at 1 µM: 134 ± 8.2%
[7]; α1β2
  Hill slope (nH): 2.0±0.9
